{"source": "patent US9637523B2", "about": "(priority 2012, dated 2017)", "key": {"[1]": {"system": "human IAV PR8", "format": "cell-based"}, "[2]": {"system": "polymerase subunits PB1, PB2, PA and NP of the avian IAV FPV-Rostock", "format": "cell-based, A/FPV/Rostock/34 (H7N1)"}, "[3]": {"system": "PB1, NS1, NP and M1 of IAV", "format": "cell-based"}, "[4]": {"system": "avian IAV FPV", "format": "cell-based"}}, "note": "“Also recorded” adds a separate entry of the source.", "data": [{"smiles": "Cc1ccc(NC(=O)c2ccc(CN3CCN(C)CC3)cc2)cc1Nc1nccc(-c2cccnc2)n1", "note": "[Imatinib]", "values": [{"measurement": "replication (progeny virus yields) of human IAV PR8", "setting": "[1]", "result": "absolutely independent of the tyrosine kinase activity of c-Abl"}, {"measurement": "viral polymerase activity (luciferase)", "setting": "[2]", "result": "neither detect an impact"}, {"measurement": "viral protein expression", "setting": "[3]", "result": "neither detect an impact"}, {"measurement": "replication (progeny virus yields) of avian IAV FPV", "setting": "[4]", "result": "interferes with replication properties of the avian IAV FPV in a concentration dependent manner; also recorded: only efficient upon low dose infection"}]}]}
